Test results: patent US6677310B1, “Ring-expanded nucleosides and nucleotides” (Nabi, priority 1999, dated 2004)

Legend:
Assay type in all cases: cell-based, human
A498 = test: SRB anti-cancer assay, Renal Cancer; conditions: 48 h
DU-145 = test: SRB anti-cancer assay, Prostate Cancer; conditions: DU-145 (Prostate Cancer), 48 h
SF-268 = test: SRB anti-cancer assay, CNS Cancer; conditions: SF-268 (CNS Cancer), 48 h
A549/ATCC = A549/ATCC (Non-Small Cell Lung Cancer), 48 h
OVCAR-5 = test: SRB anti-cancer assay, Ovarian Cancer; conditions: OVCAR-5 (Ovarian Cancer), 48 h
786-0 = test: SRB anti-cancer assay, Renal Cancer; conditions: 786-0 (Renal Cancer), 48 h
NCI-H226 = NCI-H226 (Non-Small Cell Lung Cancer), 48 h
UACC-257 = test: SRB anti-cancer assay, Melanoma; conditions: UACC-257 (Melanoma), 48 h
OVCAR-3 = test: SRB anti-cancer assay, Ovarian Cancer; conditions: OVCAR-3 (Ovarian Cancer), 48 h
CCRF-CEM = test: SRB anti-cancer assay, Leukemia; conditions: 48 h
MDA-MB- 231/ATCC = test: SRB anti-cancer assay, Breast Cancer; conditions: MDA-MB- 231/ATCC (Breast Cancer), 48 h
NCI-H460 = NCI-H460 (Non-Small Cell Lung Cancer), 48 h
OVCAR-4 = test: SRB anti-cancer assay, Ovarian Cancer; conditions: OVCAR-4 (Ovarian Cancer), 48 h
OVCAR-8 = test: SRB anti-cancer assay, Ovarian Cancer; conditions: OVCAR-8 (Ovarian Cancer), 48 h
UACC-62 = test: SRB anti-cancer assay, Melanoma; conditions: UACC-62 (Melanoma), 48 h
M14 = test: SRB anti-cancer assay, Melanoma; conditions: 48 h
SR = test: SRB anti-cancer assay, Leukemia; conditions: 48 h
ACHN = test: SRB anti-cancer assay, Renal Cancer; conditions: 48 h
SN12C = test: SRB anti-cancer assay, Renal Cancer; conditions: 48 h
MDA-MB-435 = test: SRB anti-cancer assay, Breast Cancer; conditions: MDA-MB-435 (Breast Cancer), 48 h
HOP-62 = HOP-62 (Non-Small Cell Lung Cancer), 48 h
KM12 = test: SRB anti-cancer assay, Colon Cancer; conditions: 48 h
CAKI-1 = test: SRB anti-cancer assay, Renal Cancer; conditions: CAKI-1 (Renal Cancer), 48 h
MALME-3M = test: SRB anti-cancer assay, Melanoma; conditions: MALME-3M (Melanoma), 48 h
SW-620 = test: SRB anti-cancer assay, Colon Cancer; conditions: SW-620 (Colon Cancer), 48 h
MDA-N = test: SRB anti-cancer assay, Breast Cancer; conditions: 48 h
SNB-75 = test: SRB anti-cancer assay, CNS Cancer; conditions: SNB-75 (CNS Cancer), 48 h
HCT-116 = test: SRB anti-cancer assay, Colon Cancer; conditions: HCT-116 (Colon Cancer), 48 h
UO-31 = test: SRB anti-cancer assay, Renal Cancer; conditions: UO-31 (Renal Cancer), 48 h
[1] = read-out: LC50 (the source's name)

Which results are given for N=c1nc(N)c2ncn([C@@H]3O[C@H](CO)[C@@H](O)[C@H]3O)c2c(N)n1 [Compound 14-2, 4,8-Diamino-6H-6-imino-1-β-D-ribofuranosylimidazo[4,5-e][1,3]diazepine]?
GI50 (A498): 23.1 µM; TGI (A498): 74.7 µM; CC50 (A498; [1]): > 100 µM; GI50 (DU-145): 15 µM; TGI (DU-145): 30.2 µM; CC50 (DU-145; [1]): 60.7 µM; GI50 (SF-268): 15.7 µM; TGI (SF-268): 34.8 µM; CC50 (SF-268; [1]): 77.2 µM; GI50 (A549/ATCC): 22.3 µM; TGI (A549/ATCC): 58.4 µM; CC50 (A549/ATCC; [1]): > 100 µM; GI50 (OVCAR-5): 16.8 µM; TGI (OVCAR-5): 32.7 µM; CC50 (OVCAR-5; [1]): 64 µM; GI50 (786-0): 15.7 µM; TGI (786-0): 47 µM; GI50 (NCI-H226): 33.2 µM; TGI (NCI-H226): >100 µM; CC50 (NCI-H226; [1]): > 100 µM; GI50 (UACC-257): 12.7 µM; TGI (UACC-257): 25.8 µM; CC50 (UACC-257; [1]): 52.3 µM; GI50 (OVCAR-3): 3.53 µM; TGI (OVCAR-3): 13.2 µM; CC50 (OVCAR-3; [1]): 42.3 µM; GI50 (CCRF-CEM): 59 µM; TGI (CCRF-CEM): >100 µM; CC50 (CCRF-CEM; [1]): > 100 µM; GI50 (MDA-MB- 231/ATCC): 23.8 µM; TGI (MDA-MB- 231/ATCC): 52.8 µM; CC50 (MDA-MB- 231/ATCC; [1]): > 100 µM; GI50 (NCI-H460): 15.4 µM; TGI (NCI-H460): 31.4 µM; CC50 (NCI-H460; [1]): 64.1 µM; GI50 (OVCAR-4): 16.7 µM; TGI (OVCAR-4): 35.6 µM; CC50 (OVCAR-4; [1]): 76.1 µM; GI50 (OVCAR-8): 13.2 µM; LC50 (50% lethal concentration) (OVCAR-8): 75.3 µM; TGI (OVCAR-8): 31.5 µM; GI50 (UACC-62): 2.88 µM; TGI (UACC-62): 16.2 µM; CC50 (UACC-62; [1]): 56.3 µM; GI50 (M14): 11.5 µM; TGI (M14): 24.3 µM; CC50 (M14; [1]): 51.1 µM; GI50 (SR): > 100 µM; LC50 (concentration killing 50% of cells) (SR): > 100 µM; TGI (SR): >100 µM; GI50 (ACHN): 12.3 µM; TGI (ACHN): 27.2 µM; CC50 (ACHN; [1]): 59.9 µM; GI50 (SN12C): 14.5 µM; TGI (SN12C): 29.8 µM; CC50 (SN12C; [1]): 61.2 µM; GI50 (MDA-MB-435): 12.8 µM; TGI (MDA-MB-435): 29.1 µM; CC50 (MDA-MB-435; [1]): 65.9 µM; GI50 (HOP-62): 28.5 µM; LC50 (concentration for 50% net cell kill) (HOP-62): > 100 µM; TGI (HOP-62): >100 µM; GI50 (KM12): 18.6 µM; LC50 (KM12): > 100 µM; TGI (KM12): 59.3 µM; GI50 (CAKI-1): 20.3 µM; TGI (CAKI-1): 71 µM; CC50 (CAKI-1; [1]): > 100 µM; GI50 (MALME-3M): 2.2 µM; LC50 (MALME-3M): 25.3 µM; TGI (MALME-3M): 6.79 µM; GI50 (SW-620): 17.2 µM; TGI (SW-620): >100 µM; CC50 (SW-620; [1]): > 100 µM; GI50 (MDA-N): 12.5 µM; TGI (MDA-N): 26.1 µM; CC50 (MDA-N; [1]): 54.5 µM; GI50 (SNB-75): 27.9 µM; LC50 (concentration killing 50% of cells) (SNB-75): > 100 µM; TGI (SNB-75): 99.1 µM; GI50 (HCT-116): 13.3 µM; TGI (HCT-116): 26.8 µM; CC50 (HCT-116; [1]): 54.2 µM; GI50 (UO-31): 13.7 µM; TGI (UO-31): 28.9 µM; CC50 (UO-31; [1]): 61.2 µM
